Source: US9815796B2 (Merck Sharp & Dohme Corp., priority 2013, dated 2017)

What follows are compounds tested against human PDE2A1 (Homo sapiens (Human), UniProt O00408) (assay: IMAP FP PDE selectivity panel, human PDE2A1). Conditions: Human PDE2, Lab B; read-out: Human PDE2 Ki (nM) - Lab B.
Assay type: biochemical
Method in brief: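 IMAP FP format: substrate 50 nM FAM-cAMP plus 1000 nM cGMP, enzyme (insect-cell GST-tagged human PDE2A1) at ~20% conversion, 60 min reaction at room temperature. Apparent inhibition constants calculated from parallel/perpendicular fluorescence with KM 10,000 nM.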

human PDE2A1, sequence (O00408 other isoform, or with tags, fused parts or gaps): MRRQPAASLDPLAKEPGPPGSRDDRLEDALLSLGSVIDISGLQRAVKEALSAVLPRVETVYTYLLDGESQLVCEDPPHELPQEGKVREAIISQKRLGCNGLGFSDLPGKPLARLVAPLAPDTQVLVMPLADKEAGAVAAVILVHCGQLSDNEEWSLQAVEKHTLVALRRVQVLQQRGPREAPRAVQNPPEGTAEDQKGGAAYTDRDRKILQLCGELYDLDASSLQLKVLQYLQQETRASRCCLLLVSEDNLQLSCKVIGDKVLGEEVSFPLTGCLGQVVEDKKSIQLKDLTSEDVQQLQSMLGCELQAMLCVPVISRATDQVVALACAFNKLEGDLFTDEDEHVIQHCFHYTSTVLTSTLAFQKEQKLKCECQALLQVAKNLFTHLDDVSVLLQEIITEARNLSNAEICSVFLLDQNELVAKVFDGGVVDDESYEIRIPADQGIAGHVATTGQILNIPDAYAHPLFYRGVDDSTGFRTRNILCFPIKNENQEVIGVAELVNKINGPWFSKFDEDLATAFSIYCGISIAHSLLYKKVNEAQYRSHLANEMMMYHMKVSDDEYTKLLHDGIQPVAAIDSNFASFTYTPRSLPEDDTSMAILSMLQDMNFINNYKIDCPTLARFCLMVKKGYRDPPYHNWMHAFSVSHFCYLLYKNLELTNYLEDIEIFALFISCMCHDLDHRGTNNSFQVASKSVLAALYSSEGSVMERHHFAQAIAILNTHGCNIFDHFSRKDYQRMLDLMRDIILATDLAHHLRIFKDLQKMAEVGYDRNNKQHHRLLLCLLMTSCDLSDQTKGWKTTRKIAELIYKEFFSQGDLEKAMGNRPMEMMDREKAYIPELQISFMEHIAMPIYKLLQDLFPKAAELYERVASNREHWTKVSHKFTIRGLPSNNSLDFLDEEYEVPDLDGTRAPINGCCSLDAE

Compound | Ki [nM]
CC1(c2ccc(C(NC(=O)c3cc(=O)[nH]c(C4CC4)n3)C(C)(C)C)cc2F)CC1 (single isomer, unassigned) [Example 712, (S)- or (R)-2-cyclopropyl-N-(1-(3-fluoro-4-(1-methylcyclopropyl)phenyl)-2,2-dimethylpropyl)-6-oxo-1,6-dihydropyrimidine-4-carboxamide] | 237
Cc1cnc(-c2nc(C(=O)N[C@H](C)c3ccc(C(F)(F)F)cc3)cc(=O)[nH]2)o1 [Example 676, (R)-2-(5-methyloxazol-2-yl)-6-oxo-N-(1-(4-(trifluoromethyl)phenyl)ethyl)-1,6-dihydropyrimidine-4-carboxamide] | 478
CC(NC(=O)c1cc(=O)[nH]c(-c2ncccn2)n1)c1ccc(C2(C(F)(F)F)CC2)cc1 (single isomer, unassigned) [Example 692, (S)- or (R)-6-oxo-2-(pyrimidin-2-yl)-N-(1-(4-(1-(trifluoromethyl)cyclopropyl)phenyl)-ethyl)-1,6-dihydropyrimidine-4-carboxamide] | > 2960
CC(C)(C)C(NC(=O)c1cc(=O)[nH]c(-c2ncco2)n1)c1ccc(C(F)(F)F)cc1 (single isomer, unassigned) [Example 683, (S)- or (R)-N-(2,2-dimethyl-1-(4-(trifluoromethyl)phenyl)propyl)-2-(oxazol-2-yl)-6-oxo-1,6-dihydropyrimidine-4-carboxamide] | > 2960
CCc1nc(C(=O)N[C@H](C)c2ccc(S(F)(F)(F)(F)F)cc2)cc(=O)[nH]1 [Example 599, 2-ethyl-6-oxo-N-{(1R)-1-[4-(pentafluoro-λ^6-sulfanyl)phenyl]ethyl}-1,6-dihydropyrimidine-4-carboxamide] | 10
CC(C)(NC(=O)c1cc(=O)[nH]c(-c2ncccn2)n1)c1ccc(C(F)(F)F)cc1Cl [Example 568, N-{1-[2-chloro-4-(trifluoromethyl)phenyl]-1-methylethyl}-6-oxo-1,6-dihydro-2,2′-bipyrimidine-4-carboxamide] | 96
CCc1nc(C(=O)NC(C)(C)c2ccc(C(F)(F)F)cc2)cc(=O)[nH]1 [Example 600, 2-ethyl-N-{1-methyl-1-[4-(trifluoromethyl)phenyl]ethyl}-6-oxo-1,6-dihydropyrimidine-4-carboxamide] | 21
Cc1nc(C(=O)N[C@@H](c2ccc(OC(F)F)c(F)c2)C(C)C)cc(=O)[nH]1 [Example 624, N-{(1R)-1-[4-(difluoromethoxy)-3-fluorophenyl]-2-methylpropyl}-2-methyl-6-oxo-1,6-dihydropyrimidine-4-carboxamide] | 17
CC(C)(C)[C@@H](NC(=O)c1cc(=O)[nH]c(-c2ncccn2)n1)c1ccc(S(F)(F)(F)(F)F)cc1 [Example 566, N-{(1R)-2,2-dimethyl-1-[4-(pentafluoro-λ^6-sulfanyl)phenyl]propyl}-6-oxo-1,6-dihydro-2,2′-bipyrimidine-4-carboxamide] | 4.3
Cc1nc(C(=O)N[C@@](C)(CO)c2ccc(C(F)(F)F)cc2)cc(=O)[nH]1 [Example 635, N-{(1R)-2-hydroxy-1-methyl-1-[4-(trifluoromethyl)phenyl)ethyl}-2-methyl-6-oxo-1,6-dihydropyrimidine-4-carboxamide] | 59
Cc1nc(C(=O)N[C@@H](c2ccc(C(F)F)c(F)c2)C2CC2)cc(=O)[nH]1 [Example 651, N-{(R)-cyclopropyl[4-(difluoromethyl)-3-fluorophenyl]methyl}-2-methyl-6-oxo-1,6-dihydropyrimidine-4-carboxamide] | 109
Cc1nc(C(=O)NC(CO)(CO)c2ccc(C(F)(F)F)cc2)cc(=O)[nH]1 [Example 605, N-{2-hydroxy-1-(hydroxymethyl)-1-[4-(trifluoromethyl)phenyl]ethyl}-2-methyl-6-oxo-1,6-dihydropyrimidine-4-carboxamide] | 102
O=C(NC1(c2ccc(S(F)(F)(F)(F)F)cc2)CC1)c1cc(=O)[nH]c(-c2ccccc2)n1 [Example 553, 6-oxo-N-{1-[4-(pentafluoro-λ^6-sulfanyl)phenyl]cyclopropyl}-2-phenyl-1,6-dihydropyrimidine-4-carboxamide] | 10
O=C(NC1(c2ccc3c(c2)OC(F)(F)O3)CC1)c1cc(=O)[nH]c(-c2ccccc2)n1 [Example 535, N-[1-(2,2-difluoro-1,3-benzodioxol-5-yl)cyclopropyl]-6-oxo-2-phenyl-1,6-dihydropyrimidine-4-carboxamide] | 24
Cc1nc(C(=O)N[C@]2(c3ccc(C(C)C)cc3)C[C@H]2C)cc(=O)[nH]1 (single isomer, unassigned) [Example 665, 2-methyl-N-{2-methyl-1-[4-(1-methylethyl)phenyl]cyclopropyl}-6-oxo-1,6-dihydropyrimidine-4-carboxamide] | 4.95
Cc1nc(C(=O)N[C@@H](c2ccc(OC(F)F)c(F)c2)C2(C)CC2)cc(=O)[nH]1 [Example 631, N-[(R)-[4-(difluoromethoxy)-3-fluorophenyl](1-methylcyclopropyl)methyl]-2-methyl-6-oxo-1,6-dihydropyrimidine-4-carboxamide] | 13
CCc1nc(C(=O)N[C@](C)(CO)c2ccc(C(F)(F)F)cc2)cc(=O)[nH]1 [Example 638, 2-ethyl-N-{(1S)-2-hydroxy-1-methyl-1-[4-(trifluoromethyl)phenyl]ethyl}-6-oxo-1,6-dihydropyrimidine-4-carboxamide] | 12
CC(C)(C)[C@@H](NC(=O)c1cc(=O)[nH]c(-c2ncccn2)n1)c1ccc(C(F)(F)F)c([N+](=O)[O-])c1 [Example 567, N-{(1R)-2,2-dimethyl-1-[3-nitro-4-(trifluoromethyl)phenyl]propyl}-6-oxo-1,6-dihydro-2,2′-bipyrimidine-4-carboxamide] | 49

Results, then the compound that gave them:

Ki [nM] | Compound
> 2960 | Cc1nc(C(=O)N[C@H](C)c2ccc(S(F)(F)(F)(F)F)cc2F)cc(=O)[nH]1 [Example 672, N-(1-(2-fluoro-4-(pentafluorothio)phenyl)ethyl)-2-methyl-6-oxo-1,6-dihydropyrimidine-4-carboxamide]
38 | CC(C)[C@@H](NC(=O)c1cc(=O)[nH]c(-c2ncccn2)n1)c1ccc(OC(F)(F)F)c(Br)c1 [Example 580, N-{(1R)-1-[3-bromo-4-(trifluoromethoxy)phenyl]-2-methylpropyl}-6-oxo-1,6-dihydro-2,2′-bipyrimidine-4-carboxamide]
51 | Cc1nc(C(=O)NC2(c3ccc(C(F)(F)F)cc3F)CC2)cc(=O)[nH]1 [Example 625, N-{1-[2-fluoro-4-(trifluoromethyl)phenyl]cyclopropyl}-2-methyl-6-oxo-1,6-dihydropyrimidine-4-carboxamide]
> 2960 | Cc1nc(C(=O)NC(C)c2ccc(C3(C(F)(F)F)CC3)cc2)cc(=O)[nH]1 (single isomer, unassigned) [Example 686, (S)- or (R)-2-methyl-6-oxo-N-(1-(4-(1-(trifluoromethyl)cyclopropyl)phenyl)-ethyl)-1,6-dihydropyrimidine-4-carboxamide]
32 | Cc1nc(C(=O)NC(C)(C)c2ccc(C(F)(F)F)c(Cl)c2)cc(=O)[nH]1 [Example 641, N-{1-[3-chloro-4-(trifluoromethyl)phenyl]-1-methylethyl}-2-methyl-6-oxo-1,6-dihydropyrimidine-4-carboxamide]
10 | CC1([C@@H](NC(=O)c2cc(=O)[nH]c(-c3ncccn3)n2)c2ccc(C(F)(F)F)cc2)CC1 [Example 582, N-{(R)-(1-methylcyclopropyl)[4-(trifluoromethyl)phenyl]methyl}-6-oxo-1,6-dihydro-2,2′-bipyrimidine-4-carboxamide]
3.7 | CCc1nc(C(=O)N[C@H](C)c2ccc(OC(F)(F)F)c(F)c2)cc(=O)[nH]1 [Example 598, 2-ethyl-N-{(1R)-1-[3-fluoro-4-(trifluoromethoxy)phenyl]ethyl}-6-oxo-1,6-dihydropyrimidine-4-carboxamide]
1.8 | CC(C)c1ccc([C@H](NC(=O)c2cc(=O)[nH]c(-c3ccccc3)n2)C2(C)CC2)cc1 [Example 547, N-{(R)-(1-methylcyclopropyl)[4-(1-methylethyl)phenyl]methyl}-6-oxo-2-phenyl-1,6-dihydropyrimidine-4-carboxamide]
22 | CC(C)(C)[C@@H](NC(=O)c1cc(=O)[nH]c(-c2ncccn2)n1)c1ccc(OC(F)F)c(F)c1 [Example 589, N-{(1R)-1-[4-(difluoromethoxy)-3-fluorophenyl]-2,2-dimethylpropyl}-6-oxo-1,6-dihydro-2,2′-bipyrimidine-4-carboxamide]
35 | CC(C)(C)[C@@H](NC(=O)c1cc(=O)[nH]c(-c2ncccn2)n1)c1ccc(CC(F)(F)F)cc1 [Example 558, N-[(1R)-2,2-dimethyl-1-[4-(2,2,2-trifluoroethyl)phenyl]propyl}-6-oxo-1,6-dihydro-2,2′-bipyrimidine-4-carboxamide]
133 | Cc1nc(C(=O)N[C@H](C)c2ccc(C(F)F)c(F)c2)cc(=O)[nH]1 [Example 657, N-{(1R)-1-[4-(difluoromethyl)-3-fluorophenyl]ethyl}-2-methyl-6-oxo-1,6-dihydropyrimidine-4-carboxamide]
> 2960 | CC(NC(=O)c1cc(=O)[nH]c(-c2ccccc2)n1)c1ccc(C(C)(C)C(F)(F)F)cc1 (single isomer, unassigned) [Example 698, (S)- or (R)-6-oxo-2-phenyl-N-(1-(4-(1,1,1-trifluoro-2-methylpropan-2-yl)phenyl)ethyl)-1,6-dihydropyrimidine-4-carboxamide]
3.8 | CC1(c2ccc(C(NC(=O)c3cc(=O)[nH]c(-c4ccccc4)n3)C(C)(C)C)cc2F)CC1 (single isomer, unassigned) [Example 715, (R)- or (S)-N-(1-(3-fluoro-4-(1-methylcyclopropyl)phenyl)-2,2-dimethylpropyl)-6-oxo-2-phenyl-1,6-dihydropyrimidine-4-carboxamide]
25 | Cc1nc(C(=O)N[C@@H](c2ccc(C(F)F)cc2)C2(C)CC2)cc(=O)[nH]1 [Example 645, N-[(R)-[4-(difluoromethyl)phenyl](1-methylcyclopropyl)methyl]-2-methyl-6-oxo-1,6-dihydropyrimidine-4-carboxamide]
